Results as given in publication PMC10593844, “Structure-function analyses reveal key molecular determinants of HIV-1 CRF01_AE resistance to the entry inhibitor temsavir” (Nature Communications, 2023).
pIC50: −log10 of the molar value. Several values for one entry are separate records, joined by “and”; a condition that tells them apart may be missing. Equal entries are not always repeated. Where two headings read alike, the source gives them in different places.

Assays:
[1] = system: HIV-1 pseudovirus bearing CRF01_AE 92TH023 Env LM; experiment: organism not typed; format: cell-based; settings: for Relative infectivity (%): 92TH023 LM
[2] = system: HIV-1JR-FL Env S375N on HEK293T cells; format: binding; settings: JRFL S375N; temsavir 10 µM; listed as TMR
[3] = system: CRF01_AE CM244 Env LM+HS on HEK293T cells; format: binding; settings: temsavir 10 µM, listed as TMR
[4] = system: HIV-1 pseudovirus bearing EnvJR-FL S375W; experiment: organism not typed; format: cell-based; settings: for Relative infectivity (%): JRFL S375W
[5] = system: HIV-1 pseudovirus bearing CRF01_AE 92TH023 Env LMHT; experiment: organism not typed; format: cell-based; settings: for Relative infectivity (%): 92TH023 LMHT
[6] = system: HIV-1 pseudovirus bearing clade B YU2 Env Y61H; format: cell-based
[7] = system: HIV-1JR-FL Env S375T on HEK293T cells; format: binding; settings: JRFL S375T; temsavir 10 µM; listed as TMR
[8] = system: HIV-1 pseudovirus bearing clade B YU2 Env LM+SH; experiment: organism not typed; format: cell-based; settings: for Relative infectivity (%): YU2 LM+SH
[9] = target: T1, clade B YU2 Env S375H on HEK293T cells (Human immunodeficiency virus type 1 group M subtype B, UniProt P35961, S370H); format: binding; settings: temsavir 10 µM, listed as TMR
T1 construct: expressed in transfected cells; host or cells: HEK293T (pSVIIIenv co-transfected with a Tat expressor)

[10] = system: HIV-1JR-FL Env S375Y on HEK293T cells; format: binding; settings: JRFL S375Y; temsavir 10 µM; listed as TMR
[11] = system: HIV-1 pseudovirus bearing clade B YU2 Env H105Q/I108V; format: cell-based
[12] = system: HIV-1JR-FL Env S375F on HEK293T cells; format: binding; settings: JRFL S375F; temsavir 10 µM; listed as TMR
[13] = system: HIV-1 pseudovirus bearing EnvJR-FL S375F; experiment: organism not typed; format: cell-based
[14] = system: CRF01_AE CM244 Env WT on HEK293T cells; format: binding; settings: temsavir 10 µM, listed as TMR
[15] = system: CRF01_AE 92TH023 Env H375T on HEK293T cells; format: binding; settings: 92TH023 H375T; temsavir 10 µM; listed as TMR
[16] = system: HIV-1 pseudovirus bearing EnvJR-FL S375Y; experiment: organism not typed; format: cell-based; settings: for Relative infectivity (%): JRFL S375Y
[17] = system: HIV-1 pseudovirus bearing EnvJR-FL S375M; experiment: organism not typed; format: cell-based
[18] = system: HIV-1 pseudovirus bearing EnvJR-FL S375N; experiment: organism not typed; format: cell-based; settings: for Relative infectivity (%): JRFL S375N
[19] = system: HIV-1JR-FL Env WT on HEK293T cells; format: binding; settings: JRFL WT; temsavir 10 µM; listed as TMR
[20] = system: HIV-1JR-FL Env S375M on HEK293T cells; format: binding; settings: JRFL S375M; temsavir 10 µM; listed as TMR
[21] = system: panel of 208 HIV-1 Envs from different clades; settings: cited from earlier work; for pIC50: read-out: Neutralization IC50
[22] = system: HIV-1 pseudovirus bearing CRF01_AE 92TH023 Env LMHS; experiment: organism not typed; format: cell-based; settings: for Relative infectivity (%): 92TH023 LMHS
[23] = system: HIV-1 pseudovirus bearing CRF01_AE 92TH023 Env WT; experiment: organism not typed; format: cell-based; settings: for Relative infectivity (%): 92TH023 WT
CRF01_AE strains = system: CRF01_AE strains; design: method as in PMID 30604750; settings: CRF01_AE strains; cited from earlier work
[24] = system: HIV-1 pseudovirus bearing clade B YU2 Env LM+ST; experiment: organism not typed; format: cell-based; settings: for Relative infectivity (%): YU2 LM+ST

SMILES: COc1cnc(-n2cnc(C)n2)c2[nH]cc(C(=O)C(=O)N3CCN(C(=O)c4ccccc4)CC3)c12 [Temsavir, temsavir]
- Relative infectivity (%) ([1]; Temsavir 1 nM): 82.8885% and 105.829% and 81.5038%
- Relative infectivity (%) ([1]; Temsavir 5 nM): 63.4532% and 71.1451% and 85.9246%
- Relative infectivity (%) ([1]; Temsavir 10 nM): 66.9458% and 79.651% and 87.1271%
- Relative infectivity (%) ([1]; Temsavir 50 nM): 76.0092% and 99.9867% and 85.6288%
- pIC50 ([1]; Cf2Th-CD4/CCR5): < 7.30
- sCD4 binding (+TMR) - Fold over DMSO [2]: 0.2273 and 0.2477 and 0.2229
- sCD4 binding (+TMR) - Fold over DMSO [3]: 0.6661 and 0.4581 and 0.6625
- pIC50 ([4]; Cf2Th-CD4/CCR5): < 7.00
- Relative infectivity (%) ([4]; Temsavir 0.1 nM): 99.9863% and 100.025% and 95.7102%
- Relative infectivity (%) ([4]; Temsavir 0.5 nM): 97.6131% and 107.833% and 88.0394%
- Relative infectivity (%) ([4]; Temsavir 1 nM): 112.34% and 95.1648% and 85.749%
- Relative infectivity (%) ([4]; Temsavir 5 nM): 108.208% and 99.6983% and 99.0301%
- Relative infectivity (%) ([5]; Temsavir 1 nM): 42.8978% and 67.1593% and 55.5357%
- Relative infectivity (%) ([5]; Temsavir 5 nM): 44.0227% and 46.691% and 23.9805%
- Relative infectivity (%) ([5]; Temsavir 50 nM): 14.3245% and 26.4308% and 14.3408%
- pIC50 ([5]; Cf2Th-CD4/CCR5): 8.88
- Relative infectivity (%) ([6]; Temsavir 5 nM): 2.81% and 1.74% and 3.98%
- Relative infectivity (%) ([6]; Temsavir 10 nM): 1.05% and 1.23% and 1.34%
- Relative infectivity (%) ([6]; Temsavir 50 nM): 1.04% and 1.28% and 3.8%
- Relative infectivity (%) ([6]; Temsavir 100 nM): 0.97% and 2.23% and 1.32%
- sCD4 binding (+TMR) - Fold over DMSO [7]: 0.1797 and 0.1688 and 0.2064
- pIC50 ([8]; Cf2Th-CD4/CCR5): < 7.00
- Relative infectivity (%) ([8]; Temsavir 1 nM): 101.627% and 98.3187% and 88.9144%
- Relative infectivity (%) ([8]; Temsavir 5 nM): 105.436% and 97.7235% and 87.2207%
- Relative infectivity (%) ([8]; Temsavir 10 nM): 114.432% and 105.33% and 87.5665%
- Relative infectivity (%) ([8]; Temsavir 50 nM): 115.171% and 108.587% and 70.9415%
- Relative infectivity (%) ([8]; Temsavir 100 nM): 115.039% and 106.712% and 94.0587%
- sCD4 binding (+TMR) - Fold over DMSO [9]: 1.163 and 1.208 and 0.9124
- sCD4 binding (+TMR) - Fold over DMSO [10]: 1.015 and 0.9829 and 1.003
- Relative infectivity (%) ([11]; Temsavir 5 nM): 1.06% and 2.62% and 1.23%
- Relative infectivity (%) ([11]; Temsavir 10 nM): 1.04% and 2.29% and 1.51%
- Relative infectivity (%) ([11]; Temsavir 50 nM): 0.98% and 2.22% and 1.35%
- Relative infectivity (%) ([11]; Temsavir 100 nM): 1.01% and 5.2% and 2.05%
- sCD4 binding (+TMR) - Fold over DMSO [12]: 0.9879 and 0.8506 and 0.9038
- pIC50 ([13]; Cf2Th-CD4/CCR5): < 7.00
- Relative infectivity (%) ([13]; JRFL S375F, Temsavir 0.1 nM): 97.0588% and 121.506% and 78.411%
- sCD4 binding (+TMR) - Fold over DMSO [14]: 1.042 and 0.9403 and 0.9549
- sCD4 binding (+TMR) - Fold over DMSO [15]: 0.7474 and 0.9648 and 0.9745
- pIC50 ([16]; Cf2Th-CD4/CCR5): < 7.00
- Relative infectivity (%) ([16]; Temsavir 0.1 nM): 95.0549% and 100.21% and 92.5783%
- Relative infectivity (%) ([16]; Temsavir 0.5 nM): 93.6966% and 92.3523% and 97.9897%
- Relative infectivity (%) ([16]; Temsavir 1 nM): 103.494% and 95.9187% and 99.1671%
- Relative infectivity (%) ([16]; Temsavir 5 nM): 82.1418% and 84.655% and 82.6307%
- pIC50 ([17]; Cf2Th-CD4/CCR5): 7.19
- Relative infectivity (%) ([17]; JRFL S375M, Temsavir 0.1 nM): 98.6007% and 143.038% and 92.762%
- pIC50 ([18]; Cf2Th-CD4/CCR5): 8.91
- Relative infectivity (%) ([18]; Temsavir 0.1 nM): 85.6384% and 86.7177% and 89.7623%
- Relative infectivity (%) ([18]; Temsavir 0.5 nM): 73.4943% and 55.2266% and 75.8961%
- Relative infectivity (%) ([18]; Temsavir 25 nM): 4.928% and 3.547% and 2.352% and 8.953%
- Relative infectivity (%) ([18]; Temsavir 100 nM): 2.171% and 1.397% and 0.7541% and 3.487%
- sCD4 binding (+TMR) - Fold over DMSO [19]: 0.09994 and 0.08955 and 0.1163
- sCD4 binding (+TMR) - Fold over DMSO [20]: 0.2258 and 0.2038 and 0.2793
- pIC50 ([21]; Fig 2a, Env strains with Y61, ref Pancera et al.): 9.40
- pIC50 ([21]; individual strains with H375): < 4.70 and 4.74 and 5.39 and 5.07 and 4.90 and 5.32 and 5.55 and 4.89 and 5.38 and 5.29
- pIC50 ([21]; individual strains with S375): 7.92
- pIC50 ([21]; individual strains, CRF01_AE): < 4.70 and 4.74 and 5.39 and 5.07 and 4.90 and 5.32 and 5.55 and 4.89 and 5.38 and 5.29
- active against % of a panel of 208 HIV-1 Envs ([21]; whole panel, different clades): 91%
- Relative infectivity (%) ([22]; Temsavir 1 nM): 49.3528% and 37.816% and 43.3804%
- Relative infectivity (%) ([22]; Temsavir 5 nM): 29.4428% and 33.6115% and 29.1035%
- Relative infectivity (%) ([22]; Temsavir 10 nM): 21.0612% and 17.7261% and 12.1457%
- Relative infectivity (%) ([22]; Temsavir 50 nM): 7.315% and 6.366% and 6.4059%
- pIC50 ([22]; Cf2Th-CD4/CCR5): 9.05
- Relative infectivity (%) ([23]; Temsavir 1 nM): 89.8645% and 102.181% and 86.0322%
- Relative infectivity (%) ([23]; Temsavir 5 nM): 77.4465% and 120.721% and 86.7772%
- Relative infectivity (%) ([23]; Temsavir 10 nM): 69.308% and 86.3374% and 95.4665%
- Relative infectivity (%) ([23]; Temsavir 50 nM): 75.3192% and 101.13% and 84.1355%
- pIC50 ([23]; Cf2Th-CD4/CCR5): < 7.30
- pIC50 (CRF01_AE strains): < 5.24
- pIC50 ([24]; Cf2Th-CD4/CCR5): 7.49
- Relative infectivity (%) ([24]; Temsavir 1 nM): 95.2565% and 91.9655% and 79.6279%
- Relative infectivity (%) ([24]; Temsavir 5 nM): 83.0048% and 82.0339% and 77.855%
- Relative infectivity (%) ([24]; Temsavir 10 nM): 75.1553% and 73.7876% and 56.2664%
- Relative infectivity (%) ([24]; Temsavir 50 nM): 36.2326% and 38.0343% and 31.1158%
- Relative infectivity (%) ([24]; Temsavir 100 nM): 20.7287% and 13.4951% and 13.1747%
